Where a SMILES comes first, the peptide text is derived from it.
Target: T1, NEP (Rattus norvegicus, UniProt P07861)
T1 construct: peripheral tissue membrane preparations that are known to be enriched in NEP-peptidase; from tissue; host or cells: rat renal outer medulla/kidney, intestine mucosa, placenta, prostate, dental and bone tissues, submandibular gland (membrane preparations)
T1 sequence (P07861 2-750): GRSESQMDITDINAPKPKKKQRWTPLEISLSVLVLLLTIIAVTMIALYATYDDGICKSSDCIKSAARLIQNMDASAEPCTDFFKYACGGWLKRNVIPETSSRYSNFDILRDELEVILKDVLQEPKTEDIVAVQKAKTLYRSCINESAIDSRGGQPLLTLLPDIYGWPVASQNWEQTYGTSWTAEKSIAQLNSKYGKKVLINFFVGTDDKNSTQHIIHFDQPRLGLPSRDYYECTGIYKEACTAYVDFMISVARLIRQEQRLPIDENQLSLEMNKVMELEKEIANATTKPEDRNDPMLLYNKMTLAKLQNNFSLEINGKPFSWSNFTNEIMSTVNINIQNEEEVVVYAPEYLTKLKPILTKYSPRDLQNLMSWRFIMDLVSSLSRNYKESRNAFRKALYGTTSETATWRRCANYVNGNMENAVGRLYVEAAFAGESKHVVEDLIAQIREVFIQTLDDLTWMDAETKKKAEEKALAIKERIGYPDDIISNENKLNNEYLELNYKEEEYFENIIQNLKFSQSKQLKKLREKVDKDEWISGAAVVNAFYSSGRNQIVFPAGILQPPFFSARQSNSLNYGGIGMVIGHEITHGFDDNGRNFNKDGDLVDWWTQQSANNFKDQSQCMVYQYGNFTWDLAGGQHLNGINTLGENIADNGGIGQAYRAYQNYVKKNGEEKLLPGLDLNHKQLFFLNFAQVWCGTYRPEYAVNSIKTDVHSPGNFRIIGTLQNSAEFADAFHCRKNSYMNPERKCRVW
Assay: Substance P endoproteolysis by rat peripheral tissue membrane preparations
Format: biochemical
Protocol: FIG. 4-A: Endopeptidase activity of the tissue membrane preparations was determined using 25 nM [3H] substanceP, in the presence of 10 μM bestatin. The enzymatic specific activity expressed in pM/min/μg membrane protein is done in the absence and in the presence of 10 μM sialorphin or NEP inhibitors (10 μM phosphoramidon or 1 μM thiorphan).
FIG. 4-B: Concentration-dependent inhibition by sialorphin of [3H] substanceP catabolism by rat renal membrane preparations. Each point represents the percentage of […] intact [3H] substanceP recovered and calculated as percentage of velocity without inhibitor−velocity in presence of inhibitor/velocity without inhibitor, and (*) represents the mean±SD of four determinations. Sialorphin concentration is expressed in nM and plotted on a log scale in B right. The protein concentration of membrane enzyme were defined according to conditions of measurement of initial velocity.
The same approach was applied to peripheral tissue membrane preparations that are known to be enriched in NEP-peptidase and/or to be targets for sialorphin, in vivo, i.e., renal outer medulla, intestine mucosa, placenta, prostate, dental and bone tissues, as well as submandibular epithelium (Rougeot, C. et al, American Journal of Physiology, (1997) 273, R1309-20; Sales et al., (1991) Regulatory Peptides 33, 209-22) and reviewed by Kenny et al., (1987), Mammalian ectoenzymes 169-210. There is evidence that, almost all these tissues contain substance P released from peripheral parasympathetic and sensory nerve terminals acting near the site of release on target cells that contain the neurokinin receptors to modulate the particular tissue function (McCarson et al., (1999), Neuroscience 93, 361-70). Thus, it appeared that the neuropeptide could be regarded as a relevant biologically NEP substrate at the periphery. However, substance P is cleaved potently by NEP and ACE membrane-bound peptidases, and both enzymes are highly distributed in the renal epithelium (Skidgel et al., (1985), Progress in Clinical & Biological Research 192, 371-8).
The specificity of the peptidase assay was assessed by testing the inhibitory efficacy of selective peptidase inhibitors (at 1-10 μM final concentration to induce maximum inhibitory response) on the endoproteolysis of 3H substance P by the various tissue-membrane enzymes, and by analysing the selective formation of the NEP-related tritiated product of the reaction that was defined, as above using spinal tissue. In addition, under standard conditions of initial velocity measurement, bestatin (10 μM) was added in the incubation medium to prevent unselectively the membrane aminopeptidase activities.

inhibitory efficacy on ectopeptidase-sensitive substance P degradation (inner bone tissues, n=4): 75±10% | inhibition at 10 µM (male rat kidney membranes, 25 nM [3H] substance P, 10 μM bestatin, 10 μM sialorphin, n=9, read-out: inhibition of renal membrane substance-P-hydrolytic activity (maximum inhibitory response)): 60 ± 5% | protection of exogenous 3H substance P from catabolic process (membrane fractions of the rat intestine): 87±17% | inhibition of substance-P-hydrolytic activity (rat SMG (submandibular gland) membranes): 79% | reduction of 3H-substance P catabolic process (rat inner dental tissue membranes, inhibitors at 1-10 μM (sialorphin 10 μM)): 39±14% | decrease of substance P degradation (rat placenta and prostate tissue membranes, 10 μM): 70±3% | IC50 (rat renal membrane preparations, read-out: IC50 on 3H substance-P degradation by rat kidney): 500 to 1000 nM
SMILES: N=C(N)NCCC[C@H](NC(=O)[C@@H]1CCCN1C(=O)[C@H](CC(N)=O)NC(=O)[C@H](Cc1c[nH]cn1)NC(=O)[C@@H](N)CCC(N)=O)C(=O)O [sialorphin, Gln-His-Asn-Pro-Arg] (H-QHNPR-OH; N-terminus and C-terminus assumed)
